These results are taken from patent publication US11000033B2, “Ketone or oxime compound, and herbicide” (NISSAN CHEMICAL CORPORATION, priority 2014, dated 2021).

What all share (format): in vivo
The subject of one data set is Scirpus juncoides. As to the kind of experiment: Test Example 2: herbicidal activity, application during weed generation in submerged conditions (symbol B). The note with it: Table 23; application herbicide amount 320 g/ha; grade 0-5 by criteria of Test Example 1. The essentials:
(§1)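 Submerged alluvial soil (4 cm) sown with mixed seed; greenhouse 25–30° C. 1–2 leaf: diluted emulsion onto water surface, preset dose. Visual score, 3 wk.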

In data set [1] the test system is directly sowed rice plant. As to the kind of experiment: Test Example 3: effect on crop by foliage application, Wagner pot (symbol b). The note with it: application herbicide amount 320 g/ha. The essentials: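 Alluvial soil in a 1/10000-are Wagner pot was flooded to a water depth of 0.1–0.5 cm. Echinochloa crus-galli var. crus-galli, Leptochloa chinensis, Cyperus difformis and rice were sown into it and grown in a greenhouse at 25–30 °C.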

The subject of a further data set is corn. As to the kind of experiment: Test Example 5: effect on crop by foliage application, plastic box (symbol c). Particulars: 320 g/ha, 3 weeks after application. The essentials: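 In a plastic box 7 cm deep filled with sterilized diluvial soil, seeds of crops and weeds such as Digitaria ciliaris, Avena fatua and Amaranthus retroflexus are sown in spots and covered with about 1.5 cm of soil before greenhouse growth at 25–30° C.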

The next data set concerns Monochoria vaginalis. The data set can be described thus: Test Example 2: herbicidal activity, application during weed generation in submerged conditions (symbol C). Particulars: Table 23; application herbicide amount 320 g/ha; grade 0-5 by criteria of Test Example 1. The essentials: as §1
For another data set, the system named is transplanted rice plant. The data set can be described thus: Test Example 1: effect on crop, application before weed generation in submerged conditions (symbol a). The note with it: application herbicide amount 320 g/ha. In short, it runs like this: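 Rice at 2.5 leaf stage transplanted into submerged soil (4 cm depth) sown with three weed species; herbicide applied before weed emergence.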

Another data set concerns Lolium multiflorum Lam. The data set can be described thus: Test Example 5: herbicidal effect by foliage application, plastic box (symbol K). The note with it: 320 g/ha, 3 weeks after application. The essentials:
(§2)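 Greenhouse foliar test: seedlings at 14 days, grown 25° C. to 30° C. in sterilized diluvial soil; compound applied as an aqueous dilution of an emulsion; response read 3 weeks after spraying.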

In the next data set the test system is wheat. The data set can be described thus: Test Example 4: effect on crop by soil treatment (symbol e). Particulars: application herbicide amount 320 g/ha. The essentials: (§3)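 Crop seed is sown in spots together with several weed species in a box of sterilized diluvial soil. It is covered by about 1.5 cm of soil and kept in a greenhouse held between 25° C. and 30° C.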

The next data set relates to Cyperus difformis. As to the kind of experiment: Test Example 3: herbicidal effect by foliage application, Wagner pot (symbol E). Particulars: application herbicide amount 320 g/ha. In short, it runs like this: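 Steps: fill pot with alluvial soil; add water to 0.1–0.5 cm depth; sow weed and rice seed; grow 14 days at 25–30 °C; spray diluted emulsion over the leaves; rate effect after 3 weeks.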

For the next data set, the system named is rice. The data set can be described thus: Test Example 4: effect on crop by soil treatment (symbol b). Particulars: application herbicide amount 320 g/ha. The essentials: as §3
For data set [2], the system named is Echinochloa oryzacola Vasing. The data set can be described thus: Test Example 1: herbicidal activity, application before weed generation in submerged conditions (symbol A). Particulars: application herbicide amount 320 g/ha. The essentials:
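Steps: alluvial soil flooded to 4 cm; weed seeds sown together; rice seedlings (2.5 leaf) transplanted; diluted emulsion applied to water surface the same day as sowing; plants grown at 25–30 °C in greenhouse; herbicidal effect rated on a 0–5 scale at 3 weeks.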

The subject of another data set is Avena fatua. The data set can be described thus: Test Example 5: herbicidal effect by foliage application, plastic box (symbol I). The note with it: 320 g/ha, 3 weeks after application. In short, it runs like this: as §2
A further data set relates to Chenopodium album. As to the kind of experiment: Test Example 5: herbicidal effect by foliage application, plastic box (symbol O). The note with it: 320 g/ha, 3 weeks after application. The essentials: as §2
The subject of a further data set is soybean. The data set can be described thus: Test Example 4: effect on crop by soil treatment (symbol d). The note with it: application herbicide amount 320 g/ha. The essentials: as §3

With `CON=C(C)CC1CC(OC(=O)COc2ccc(OC)cc2)=C(c2c(C)cc(C)cc2C)C1=O` (centres unmarked) [1-069], the “Herbicidal effect grade, B: Scirpus juncoides” value in the data set with Scirpus juncoides was 4 (Herbicidal ratio of 70% or higher and lower than 90%). For the same compound, the “effect on crop b (directly sowed rice plant), grade 0-5” value in data set [1] is reported as 5 (Herbicidal ratio of 90% or more (almost completely withered)). Also, in the data set with corn, the “c: corn, effect on crop grade” value was 3 (Herbicidal ratio of 40% or higher and lower than 70%). The “Herbicidal effect grade, C: Monochoria vaginalis” value in the data set on Monochoria vaginalis was 3 (Herbicidal ratio of 40% or higher and lower than 70%). The “Effect grade on crop, a: transplanted rice plant” value in the data set with transplanted rice plant is 5 (Herbicidal ratio of 90% or more (almost completely withered)). For the same compound, the “K: Lolium multiflorum Lam., herbicidal effect grade” value with Lolium multiflorum Lam. is on record as 5 (Herbicidal ratio of 90% or more (almost completely withered)). Also, in the data set on wheat, the “e (wheat) effect on crop grade” value was 4 (Herbicidal ratio of 70% or higher and lower than 90%). Moreover, the “herbicidal effect on E, grade 0-5” value in the data set with Cyperus difformis is 5 (Herbicidal ratio of 90% or more (almost completely withered)). For the same compound, the “b (directly sowed rice plant) effect on crop grade” value with rice was 5 (Herbicidal ratio of 90% or more (almost completely withered)). For the same compound, the “Herbicidal effect grade, A: Echinochloa oryzacola Vasing.” value in data set [2] is reported as 5 (Herbicidal ratio of 90% or more (almost completely withered)). For the same compound, in the data set with Avena fatua, the “I: Avena fatua, herbicidal effect grade” value was 5 (Herbicidal ratio of 90% or more (almost completely withered)). For the same compound, the “O: Chenopodium album, herbicidal effect grade” value in the data set with Chenopodium album was 2 (Herbicidal ratio of 20% or higher and lower than 40%). Also, the “d (soybean) effect on crop grade” value with soybean is 0 (Herbicidal ratio of 5% or lower (almost no effect)).

As for `CON=C(CC1CC1)CC1CC(O)=C(c2c(C)cc(C)cc2C)C1=O` (centres unmarked) [1-070], in the data set with Scirpus juncoides, the “Herbicidal effect grade, B: Scirpus juncoides” value is 0 (Herbicidal ratio of 5% or lower (almost no effect)). In addition, the “effect on crop b (directly sowed rice plant), grade 0-5” value in data set [1] is 5 (Herbicidal ratio of 90% or more (almost completely withered)). In addition, the “c: corn, effect on crop grade” value in the data set on corn was 4 (Herbicidal ratio of 70% or higher and lower than 90%). Moreover, in the data set on Monochoria vaginalis, the “Herbicidal effect grade, C: Monochoria vaginalis” value is 0 (Herbicidal ratio of 5% or lower (almost no effect)). For the same compound, in the data set on transplanted rice plant, the “Effect grade on crop, a: transplanted rice plant” value was 4 (Herbicidal ratio of 70% or higher and lower than 90%). The “K: Lolium multiflorum Lam., herbicidal effect grade” value in the data set with Lolium multiflorum Lam. is recorded as 5 (Herbicidal ratio of 90% or more (almost completely withered)). Moreover, the “e (wheat) effect on crop grade” value in the data set on wheat is 0 (Herbicidal ratio of 5% or lower (almost no effect)). Moreover, in the data set on Cyperus difformis, the “herbicidal effect on E, grade 0-5” value is 4 (Herbicidal ratio of 70% or higher and lower than 90%). Further, the “b (directly sowed rice plant) effect on crop grade” value in the data set on rice is given as 5 (Herbicidal ratio of 90% or more (almost completely withered)). The “Herbicidal effect grade, A: Echinochloa oryzacola Vasing.” value in [2] was 4 (Herbicidal ratio of 70% or higher and lower than 90%). In addition, the “I: Avena fatua, herbicidal effect grade” value with Avena fatua was 5 (Herbicidal ratio of 90% or more (almost completely withered)). Further, in the data set with Chenopodium album, the “O: Chenopodium album, herbicidal effect grade” value was 1 (Herbicidal ratio of 5% or higher and lower than 20%). The “d (soybean) effect on crop grade” value with soybean is 0 (Herbicidal ratio of 5% or lower (almost no effect)).
